The test system of experiment [1] is Panc-1 human pancreatic cancer cells. As to the kind of experiment: cancer cell adhesion, visual retraction of cells. Type of experiment: cell-based. As to conditions: 24 hours, light microscopy. On the procedure:
(§1) In these experiments, Panc-1 human pancreatic cancer cells were maintained in Dulbecco's minimum essential medium supplemented with 10% fetal calf serum at 37° C. in 5% CO2 in air. All culture reagents were purchased from Invitrogen (Burlington, ON). Panc-1 cells (ATCC CRL-1469) were plated at 20,000 cells per well of a 4-well tissue culture slide (NalgeNunc, Naperville, Ill.). After 24 hours of culture, cells were treated for 24 hours with medium containing varying concentrations of compounds 15 and 16 dissolved in dimethylsulfoxide (DMSO; final concentration of 1% DMSO in the medium), or 1% DMSO alone in the medium and then fixed with 4% paraformaldehyde dissolved in phosphate buffered saline and stained with hematoxylin. Disruption of cell adhesion was determined visually within 24 hours, by observing retraction of the cells from one another.

Experiment [2] shares this test system. As to the kind of experiment: cell death, trypan blue exclusion count. Type of experiment: cell-based. As to conditions: 24 hours. On the procedure:
as §1
In order to determine the effect of the compounds on cell death, the medium was aspirated from the treated and untreated cultures and the non-adherent cells collected by centrifugation (1000 rpm for 5 min). The cells were resuspended in phosphate buffered saline and combined with trypan blue (Sigma). Cells were then put in a hemocytometer and the number of cells that excluded the trypan blue counted using a microscope to determine the number of live cells.

Experiment [3] concerns 5TGM1 mouse MM plasma cells. The experiment in a line: C57BL/KaLwRij murine model of Multiple Myeloma, tumor burden. It counts as in vivo. To be noted: 50 mg/kg/day i.p. for 5 days; assessed at days 14, 21 and 28. Here is the method: In these experiments, 5TGM1 mouse MM plasma cells (expressing a dual GFP and luciferase reporter construct (Noll Neoplasia 2014; Cheong 2015)) were maintained in Iscove's modified Dulbecco's medium (IMDM) with 20% fetal calf serum (FCS; Thermo Fisher Scientific, Waltham, Mass., USA) and supplements.
C57Bl/KaLwRij mice (aged 6-8 weeks) were used for all in vivo studies. For MM tumor studies, mice were inoculated with 5×10^5 5 TGM1 cells in 100 μl phosphate buffered saline by intravenous injection (i.v.) via the tail vein. Total body tumor burden was assessed at days 14, 21 and 28 using the Xenogen IVIS, as previously described (Mrozik, K. M., et al., 2015, Br. J. Haematol. 171, 387-399.). All animals used for therapy studies were randomized by age, sex and, where appropriate, tumor burden. Compound 15 was dissolved at a concentration of 10 mg/ml in saline containing 40% 2-hydroxyproprol-β-cyclodextrin. Either compound 15 (50 mg/kg/day) (N=8) or vehicle (40% 2-hydroxyproprol-β-cyclodextrin in saline) (N=7) alone was administered to mice i.p. commencing 15 minutes prior to 5TGM1 cell injection for 5 days. […] Compound 15 is therefore effective for treatment of MM.

Experiment [4] has as its system human cancer-associated fibroblast (CAF010415). As to the kind of experiment: cancer-associated fibroblast viability, CELLTITER GLO. Type of experiment: cell-based. To be noted: in vitro; measured after 24 h and 48 h. On the procedure: In this study, CAFs were isolated as described by Orr et al, (On, B., et al., Oncogene, 31, 1130-1142, 2012). The cells were grown in Dulbecco's modified Eagle medium (Multicell) with 10% fetal bovine serum. CAFs are human primary fibroblasts, grown from patient prostate tumor samples. These cells are not an established cell line, nor are they immortalized, and at some point they will senesce.
In these experiments, cells were seeded in a 96-well plate (Corning) (3,000 cells/well). The next day, the drug was added at the indicated concentration (FIG. 8). After 24 h and 48 h cell viability was measured using CELLTITER GLO® (Promega, Madison, Wis.) according to the manufacturer's protocol. All assays were repeated at least 3 times in triplicate each time. The results are depicted in FIG. 8 as SEM. […] The N-cadherin antagonist compound 15 thus decreases the viability of human pancreatic cancer (PC) cells and CAFs. These observations indicate that N-cadherin antagonists can be used to treat PC.

On to `COc1ccc(OC[C@@H](O)CNC2CCN(C[C@H](O)COc3ccc(Cl)c(Cl)c3)CC2)cc1` [Compound 15, (S)-1-(3,4-Dichlorophenoxy)-3-(4-((S)-2-hydroxy-3-(4-methoxyphenoxy)propylamino)piperidin-1-yl)propan-2-ol], for which the “disruption of cell adhesion” value is “not disrupted” in experiment [1] (0.1 μM), “disrupted cell adhesion” in experiment [1] (1 μM), “disrupted cell adhesion” in experiment [1] (10 μM) and “disrupted cell adhesion” in experiment [1] (100 μM). Further, the “cell death in comparison to the control” value in experiment [2] (10 μM) and in experiment [2] (100 μM) was “caused cell death” in each case. In experiment [3], the “total body tumour burden” value is reported as “caused a decrease in tumour burden”. Moreover, the cell viability entry in experiment [4] is “decreases human cancer-associated fibroblast (CAF010415) viability”.

These data come from patent US10647672B2, “Modulators of cell adhesion, methods and compositions therefor” (Zonula Incorporated, priority 2017, dated 2020).
